{
  "source": "patent US20230045421A1",
  "about": "(priority 2018, published 2023)",
  "tested_on": "HBV rcDNA",
  "assay": "HepDE19 assay with bDNA quantitation of HBV rcDNA",
  "assay_type": "cell-based, hepatitis B virus",
  "in_short": "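Compounds, top concentration 25 μM in 8-point duplicate series, were applied to Tet-free HepDE19 cultures for 7 days. Branched-DNA quantitation of HBV rcDNA against untreated wells gave EC50 and EC90 by 4-parameter fit. Viability (CC50) came from ATP luminescence on parallel plates incubated 4 days.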",
  "key": {"[1]": {"details": "HepDE19 assay, inhibition of formation of relaxed circular DNA (rcDNA), bDNA quantitation, read-out: DE-19bDNA EC50"}, "[2]": {"details": "Hepatitis B virus, HepDE19, HepDE19 assay, inhibition of formation of rcDNA, read-out: DE-19bDNA EC50"}, "[3]": {"details": "read-out: DE-19bDNA EC50, HepDE19 assay, inhibition of formation of rcDNA"}, "[4]": {"details": "HepDE19 assay, inhibition of formation of rcDNA, read-out: DE-19bDNA EC50"}, "[5]": {"details": "read-out: DE-19bDNA EC50, HepDE19 assay, inhibition of formation of relaxed circular DNA (rcDNA), bDNA quantitation"}},
  "note": "Where two headings read alike, the source gives them in different places.",
  "data": [
    {"smiles": "CC(c1c[nH]c(=O)c2c(F)c(F)ccc12)N(C)C(=O)NCc1ccc(F)c(Cl)c1", "note": "(single isomer, unassigned) [Compound 496, 3-(3-Chloro-4-fluorobenzyl)-1-(1-(7,8-difluoro-1-oxo-1,2-dihydroisoquinolin-4-yl)ethyl)-1-methylurea]", "values": [
      {"measurement": "EC50", "setting": "[1]", "value": 7.7, "unit": "µM"}
    ]},
    {"smiles": "CN(Cc1cnc(OCc2ncn(C)n2)c2ccccc12)C(=O)Nc1ccc(F)c(Cl)c1", "note": "[Compound 87, 3-(3-Chloro-4-fluorophenyl)-1-methyl-1-((1-((1-methyl-1H-1,2,4-triazol-3-yl)methoxy)isoquinolin-4-yl)methyl)urea]", "values": [
      {"measurement": "EC50", "setting": "[2]", "value": 0.47, "unit": "µM"}
    ]},
    {"smiles": "CC(c1c[nH]c(=O)c2cc(F)c(F)cc12)N(C)C(=O)Nc1ccc(F)c(C#N)c1", "note": "(single isomer, unassigned) [Compound 429, 3-(3-Cyano-4-fluorophenyl)-1-(1-(6,7-difluoro-1-oxo-1,2-dihydroisoquinolin-4-yl)ethyl)-1-methylurea]", "values": [
      {"measurement": "EC50", "setting": "[1]", "value": 0.01, "unit": "µM"}
    ]},
    {"smiles": "CC(c1c[nH]c(=O)c2c(F)c(F)ccc12)N(C)C(=O)Nc1cccc(F)c1F", "note": "(single isomer, unassigned) [Compound 459, 1-(1-(7,8-Difluoro-1-oxo-1,2-dihydroisoquinolin-4-yl)ethyl)-3-(2,3-difluorophenyl)-1-methylurea]", "values": [
      {"measurement": "EC50", "setting": "[1]", "value": 0.2, "unit": "µM"}
    ]},
    {"smiles": "CC(c1c[nH]c(=O)c2ccccc12)N(CCCO)C(=O)Nc1ccc(F)c(Cl)c1", "note": "(single isomer, unassigned) [Compound 130, 3-(3-Chloro-4-fluorophenyl)-1-(3-hydroxypropyl)-1-(1-(1-oxo-1,2-dihydroisoquinolin-4-yl)ethyl)urea]", "values": [
      {"measurement": "EC50", "setting": "[3]", "value": 7.9, "unit": "µM"}
    ]},
    {"smiles": "CCN(C(=O)Nc1ccc(F)c(Cl)c1)C(c1ccccc1)c1c[nH]c(=O)c2ccccc12", "note": "(single isomer, unassigned) [Compound 69, 3-(3-Chloro-4-fluorophenyl)-1-ethyl-1-((1-oxo-1,2-dihydroisoquinolin-4-yl)(phenyl)methyl)urea]", "values": [
      {"measurement": "EC50", "setting": "Hepatitis B virus, HepDE19, read-out: DE-19bDNA EC50 (μM), HepDE19 assay, inhibition of formation of rcDNA", "value": 9.7, "unit": "µM"}
    ]},
    {"smiles": "CC(c1c[nH]c(=O)c2ccccc12)N(Cc1cncs1)C(=O)Nc1ccc(F)c(Cl)c1", "note": "(single isomer, unassigned) [Compound 324, 3-(3-Chloro-4-fluorophenyl)-1-(1-(1-oxo-1,2-dihydroisoquinolin-4-yl)ethyl)-1-(thiazol-5-ylmethyl)urea]", "values": [
      {"measurement": "EC50", "setting": "[1]", "value": 4.5, "unit": "µM"}
    ]},
    {"smiles": "CC(c1c[nH]c(=O)c2ccccc12)N(CC1CCOCC1)C(=O)Nc1ccc(F)c(Cl)c1", "note": "(single isomer, unassigned) [Compound 142, 3-(3-Chloro-4-fluorophenyl)-1-(1-(1-oxo-1,2-dihydroisoquinolin-4-yl)ethyl)-1-((tetrahydro-2H-pyran-4-yl)methyl)urea]", "values": [
      {"measurement": "EC50", "setting": "[4]", "value": 0.04, "unit": "µM"}
    ]},
    {"smiles": "CCN(C(=O)Nc1ccccc1)C(C)c1c[nH]c(=O)c2cc(F)c(F)cc12", "note": "(single isomer, unassigned) [Compound 405, 1-(1-(6,7-Difluoro-1-oxo-1,2-dihydroisoquinolin-4-yl)ethyl)-1-ethyl-3-phenylurea]", "values": [
      {"measurement": "EC50", "setting": "[5]", "value": 0.058, "unit": "µM"}
    ]},
    {"smiles": "CC(c1c[nH]c(=O)c2ccccc12)N(CC1CCCCC1)C(=O)Nc1ccc(F)c(Cl)c1", "note": "(single isomer, unassigned) [Compound 195, 3-(3-Chloro-4-fluorophenyl)-1-(cyclohexylmethyl)-1-(1-(1-oxo-1,2-dihydroisoquinolin-4-yl)ethyl)urea]", "values": [
      {"measurement": "EC50", "setting": "[4]", "value": 0.03, "unit": "µM"}
    ]},
    {"smiles": "CC(C)CN(C(=O)Nc1ccc(F)c(Cl)c1)C(C)c1c[nH]c(=O)c2ccccc12", "note": "(single isomer, unassigned) [Compound 143, 3-(3-chloro-4-fluorophenyl)-1-isobutyl-1-(1-(1-oxo-1,2-dihydroisoquinolin-4-yl)ethyl)urea]", "values": [
      {"measurement": "EC50", "setting": "[4]", "value": 0.85, "unit": "µM"}
    ]},
    {"smiles": "CCCCN(C(=O)Nc1ccc(F)c(Cl)c1)C(C)c1c[nH]c(=O)c2ccccc12", "note": "(single isomer, unassigned) [Compound 84, 1-Butyl-3-(3-chloro-4-fluorophenyl)-1-(1-(1-oxo-1,2-dihydroisoquinolin-4-yl)ethyl)urea]", "values": [
      {"measurement": "EC50", "setting": "[3]", "value": 0.01, "unit": "µM"}
    ]},
    {"smiles": "COc1ncc(CN(C(=O)Nc2ccc(F)c(Cl)c2)C(C)C)c2ccccc12", "note": "[Compound 19, 3-(3-Chloro-4-fluorophenyl)-1-isopropyl-1-((1-methoxyisoquinolin-4-yl)methyl)urea]", "values": [
      {"measurement": "EC50", "setting": "[2]", "value": 2.1, "unit": "µM"}
    ]},
    {"smiles": "CC(NC(=O)Nc1ccc(F)c(Cl)c1)c1c[nH]c(=O)c2ccccc12", "note": "(single isomer, unassigned) [Compound 11, 1-(3-Chloro-4-fluorophenyl)-3-(1-(1-oxo-1,2-dihydroisoquinolin-4-yl)ethyl)urea]", "values": [
      {"measurement": "EC50", "setting": "[4]", "value": 4.7, "unit": "µM"}
    ]},
    {"smiles": "CC(c1c[nH]c(=O)c2c(F)c(F)ccc12)N(C)C(=O)Nc1ccc(Cl)cc1", "note": "(single isomer, unassigned) [Compound 444, 3-(4-Chlorophenyl)-1-(1-(7,8-difluoro-1-oxo-1,2-dihydroisoquinolin-4-yl)ethyl)-1-methylurea]", "values": [
      {"measurement": "EC50", "setting": "[5]", "value": 17, "unit": "µM"}
    ]},
    {"smiles": "COc1ncc([C@@H](C)N(CC(F)(F)F)C(=O)Nc2ccc(F)c(Cl)c2)c2ccccc12", "note": "[Compound 101, (R)-3-(3-Chloro-4-fluorophenyl)-1-(1-(1-methoxyisoquinolin-4-yl)ethyl)-1-(2,2,2-trifluoroethyl)urea]", "values": [
      {"measurement": "EC50", "setting": "[2]", "value": 0.42, "unit": "µM"}
    ]},
    {"smiles": "CC(c1c[nH]c(=O)c2ccccc12)N(Cc1nccs1)C(=O)Nc1ccc(F)c(Cl)c1", "note": "(single isomer, unassigned) [Compound 311, 3-(3-Chloro-4-fluorophenyl)-1-(1-(1-oxo-1,2-dihydroisoquinolin-4-yl)ethyl)-1-(thiazol-2-ylmethyl)urea]", "values": [
      {"measurement": "EC50", "setting": "[1]", "value": 0.066, "unit": "µM"}
    ]},
    {"smiles": "Cc1cc(NC(=O)N(C)C(C)c2c(C)[nH]c(=O)c3ccccc23)ccc1F", "note": "(single isomer, unassigned) [Compound 236, 3-(4-Fluoro-3-methylphenyl)-1-methyl-1-(1-(3-methyl-1-oxo-1,2-dihydroisoquinolin-4-yl)ethyl)urea]", "values": [
      {"measurement": "EC50", "setting": "[4]", "value": 0.41, "unit": "µM"}
    ]},
    {"smiles": "CC(c1cn(C)c(=O)c2c(F)c(F)ccc12)N(C)C(=O)Nc1ccc(F)c(Cl)c1", "note": "(single isomer, unassigned) [Compound 332, 3-(3-Chloro-4-fluorophenyl)-1-(1-(7,8-difluoro-2-methyl-1-oxo-1,2-dihydroisoquinolin-4-yl)ethyl)-1-methylurea]", "values": [
      {"measurement": "EC50", "setting": "[1]", "value": 3.7, "unit": "µM"}
    ]},
    {"smiles": "CC(c1cn(C)c(=O)c2cc(F)ccc12)N(C)C(=O)Nc1ccc(F)c(Cl)c1", "note": "(single isomer, unassigned) [Compound 303, 3-(3-Chloro-4-fluorophenyl)-1-(1-(7-fluoro-2-methyl-1-oxo-1,2-dihydroisoquinolin-4-yl)ethyl)-1-methylurea]", "values": [
      {"measurement": "EC50", "setting": "[1]", "value": 0.02, "unit": "µM"}
    ]},
    {"smiles": "CC(c1cnc(NCCN)c2ccccc12)N(C)C(=O)Nc1ccc(F)c(Cl)c1", "note": "(racemic) [Compound 244, 1-(1-(1-((2-aminoethyl)amino)isoquinolin-4-yl)ethyl)-3-(3-chloro-4-fluorophenyl)-1-methylurea]", "values": [
      {"measurement": "EC50", "setting": "[2]", "value": 2.7, "unit": "µM"}
    ]},
    {"smiles": "COc1ncc(CN(CCO)C(=O)Nc2ccc(F)c(Cl)c2)c2ccccc12", "note": "[Compound 21, 3-(3-Chloro-4-fluorophenyl)-1-(2-hydroxyethyl)-1-((1-methoxyisoquinolin-4-yl)methyl)urea]", "values": [
      {"measurement": "EC50", "setting": "[2]", "value": 18, "unit": "µM"}
    ]},
    {"smiles": "CC(c1cn(CCCO)c(=O)c2ccccc12)N(C)C(=O)Nc1ccc(F)c(Cl)c1", "note": "(single isomer, unassigned) [Compound 206, 3-(3-Chloro-4-fluorophenyl)-1-(1-(2-(3-hydroxypropyl)-1-oxo-1,2-dihydroisoquinolin-4-yl)ethyl)-1-methylurea]", "values": [
      {"measurement": "EC50", "setting": "[2]", "value": 0.85, "unit": "µM"}
    ]},
    {"smiles": "CC(c1c[nH]c(=O)c2ccccc12)N(Cc1c[nH]nn1)C(=O)Nc1ccc(F)c(Cl)c1", "note": "(single isomer, unassigned) [Compound 266, 1-((2H-1,2,3-Triazol-4-yl)methyl)-3-(3-chloro-4-fluorophenyl)-1-(1-(1-oxo-1,2-dihydroisoquinolin-4-yl)ethyl)urea]", "values": [
      {"measurement": "EC50", "setting": "[4]", "value": 12, "unit": "µM"}
    ]},
    {"smiles": "CC(c1c[nH]c(=O)c2cc(F)c(F)cc12)N(CCCO)C(=O)Nc1ccc(F)cc1", "note": "(single isomer, unassigned) [Compound 291, 1-(1-(6,7-Difluoro-1-oxo-1,2-dihydroisoquinolin-4-yl)ethyl)-3-(4-fluorophenyl)-1-(3-hydroxypropyl) urea]", "values": [
      {"measurement": "EC50", "setting": "[1]", "value": 4.6, "unit": "µM"}
    ]},
    {"smiles": "CC(c1c[nH]c(=O)c2ccccc12)N(CC(CO)CO)C(=O)Nc1ccc(F)c(Cl)c1", "note": "(single isomer, unassigned) [Compound 284, 3-(3-Chloro-4-fluorophenyl)-1-(3-hydroxy-2-(hydroxymethyl)propyl)-1-(1-(1-oxo-1,2-dihydroisoquinolin-4-yl)ethyl)urea]", "values": [
      {"measurement": "EC50", "setting": "Hepatitis B virus, HepDE19, HepDE19 assay, inhibition of formation of relaxed circular DNA (rcDNA), bDNA quantitation, read-out: DE-19bDNA EC50", "value": 0.092, "unit": "µM"}
    ]},
    {"smiles": "CC(c1cnc(C#N)c2ccccc12)N(C)C(=O)Nc1ccc(F)c(Cl)c1", "note": "(single isomer, unassigned) [Compound 337, 3-(3-Chloro-4-fluorophenyl)-1-(1-(1-cyanoisoquinolin-4-yl)ethyl)-1-methylurea]", "values": [
      {"measurement": "EC50", "setting": "[1]", "value": 0.25, "unit": "µM"}
    ]},
    {"smiles": "CC(c1c[nH]c(=O)c2c(F)cccc12)N(C)C(=O)Nc1ccc(F)c(Cl)c1", "note": "(single isomer, unassigned) [Compound 357, 3-(3-Chloro-4-fluorophenyl)-1-(1-(8-fluoro-1-oxo-1,2-dihydroisoquinolin-4-yl)ethyl)-1-methylurea]", "values": [
      {"measurement": "EC50", "setting": "[1]", "value": 0.04, "unit": "µM"}
    ]},
    {"smiles": "CC(c1c[nH]c(=O)c2ccc(F)cc12)N(CCS(N)(=O)=O)C(=O)Nc1ccc(F)c(Cl)c1", "note": "(single isomer, unassigned) [Compound 381, 2-(3-(3-Chloro-4-fluorophenyl)-1-(1-(6-fluoro-1-oxo-1,2-dihydroisoquinolin-4-yl)ethyl)ureido) ethane-1-sulfonamide]", "values": [
      {"measurement": "EC50", "setting": "[1]", "value": 1.4, "unit": "µM"}
    ]}
  ]
}
